Experimental data published in patent US11173165B2, “Optimizing mifepristone levels for Cushing's patients” (Corcept Therapeutics, Inc., priority 2015, dated 2021).

Assays:
[1] = Mifepristone trough plasma level (MIFE-Ctrough) in Phase III open label study of Cushing's syndrome; format: in vivo, human; details: for MIFE-Ctrough, Mean / MIFE-Ctrough, Max / MIFE-Ctrough, Median / MIFE-Ctrough, Min: responders who completed the study
Procedure: Three (3) mL of blood was collected from a patient in a vacutainer containing sodium heparin. The blood was centrifuged and the resulting plasma frozen at −70 to −80° C. until assay. For analysis, the plasma samples were warmed and prepared as follows: • 1. Using a pipette, 50.0 μL of the sample was aliquoted into a 16×100-mm glass test tube. When a partial volume aliquot was needed, the aliquot was added to the tube and diluted to full volume with blank human plasma. • 2. 20.0 μL of the internal standard, mifepristone-d4 (5.00 μg/mL in acetonitrile), was added to the tube, resulting in 2000.0 ng/mL mifepristone-d4 in plasma. • 3. The tube was vortexed for approximately 1 minute. • 4. 50.0 μL of 6% ammonium hydroxide was added to the tube. • 5. The tube was vortexed for approximately 1 minute. • 6. 2.00 mL of MTBE was added to the tube. • 7. 2.00 mL of hexane was added to the tube. • 8. The tube was vortexed for at least 15 minutes. • 9. The tube was centrifuged for at least 10 minutes at 2500 RPM (575×g). • 10. The aqueous layer was frozen in a freezer set to maintain −70° C. • 11. […] The tube was vortexed for approximately 1 minute. • 15. The tube was sonicated for approximately 1 minute. • 16. The tube was vortexed for approximately 1 minute. • 17. The sample was transferred to a labeled injection vial or well plate. • 18. The vial or plate was capped and checked for air bubbles. The sample was then analyzed by reverse-phase high pressure liquid chromatography using a water:acetonitrile:formic acid (60:40:0.1) mobile phase (isocratic) at a flow rate of 0.3 mL/min. The column was a phenyl column maintained at 50° C. Mifepristone elutes at 4.2 minutes. Following elution, the mobile phase was nebulized using heated nitrogen in a Z-spray source/interface and the ionized compounds detected using a tandem quadrupole mass spectrometer. Mifepristone (molecular weight of 430 g/mol) was detected at m/z 372.30. The internal standard mifepristone-d4 was detected at m/z 376.30. The ratio of the mifepristone peak height to the mifepristone-d4 peak height was calculated. The plasma concentration of mifepristone was then calculated by comparing the experimental ratio to a standard curve of mifepristone:mifepristone-d4 peak height ratio v. mifepristone concentration. The standard curve was generated by first measuring the mifepristone:mifepristone-d4 peak height ratios for mifepristone samples at 10, 20, 50, 100, 200, 500, 1000 and 2000 ng/mL where the mifepristone-d4 internal standard has a concentration of 2000 ng/mL. The mifepristone:mifepristone-d4 peak height ratios of these known solutions were then fit to a power equation (Mass Lynx by Micromass, Beverly, Mass.), and the sample with unknown concentrations of mifepristone was compared. […]

[2] = system: patients with a diagnosis of Cushing's syndrome; experiment: Optimal response to mifepristone in Phase III open label study of Cushing's syndrome; format: in vivo, human; details: responders who completed the study
Procedure: This example provides an open label study of the safety and efficacy in the treatment of Cushing's syndrome. The study was a Phase III trial performed using several investigators at several different sites. […] The number of patients was 50. Patients eligible for randomization were male or nonpregnant female outpatients, and inpatients, if clinically required, with a diagnosis of Cushing's syndrome. Mifepristone was used as the test drug at 300 (1×300 mg tablet), 600 (2×300 mg tablet), 900 (3×300 mg tablet) and 1200 mg (4×300 mg tablet) once a day by mouth. Safety visits occurred at Days 21 and 35. If clinically necessary, a patient was treated as an inpatient. If early termination occurred prior to day 35, the patient returned for a safety follow up visit at day 35. The primary efficacy endpoint was the proportion of patients with at least a 25% reduction from baseline on a standard two hour oral glucose tolerance test or a […] in their diastolic blood pressure at study end (6 months). The secondary endpoints were: (1) the patient's global impression; and (2) reduction in previously used antihypertensive medication. The criteria for assessing study efficacy objective was the proportion of patients with at least a 25% reduction from baseline on a standard two hour oral glucose tolerance test or a […] in their diastolic blood pressure at study end (6 months).

[3] = cited from earlier work
[4] = in vivo; cited from earlier work
[5] = molecular target: glucocorticoid receptor (GR) (Homo sapiens, UniProt P04150); details: cited from earlier work
glucocorticoid receptor (GR), sequence (P04150 whole entry): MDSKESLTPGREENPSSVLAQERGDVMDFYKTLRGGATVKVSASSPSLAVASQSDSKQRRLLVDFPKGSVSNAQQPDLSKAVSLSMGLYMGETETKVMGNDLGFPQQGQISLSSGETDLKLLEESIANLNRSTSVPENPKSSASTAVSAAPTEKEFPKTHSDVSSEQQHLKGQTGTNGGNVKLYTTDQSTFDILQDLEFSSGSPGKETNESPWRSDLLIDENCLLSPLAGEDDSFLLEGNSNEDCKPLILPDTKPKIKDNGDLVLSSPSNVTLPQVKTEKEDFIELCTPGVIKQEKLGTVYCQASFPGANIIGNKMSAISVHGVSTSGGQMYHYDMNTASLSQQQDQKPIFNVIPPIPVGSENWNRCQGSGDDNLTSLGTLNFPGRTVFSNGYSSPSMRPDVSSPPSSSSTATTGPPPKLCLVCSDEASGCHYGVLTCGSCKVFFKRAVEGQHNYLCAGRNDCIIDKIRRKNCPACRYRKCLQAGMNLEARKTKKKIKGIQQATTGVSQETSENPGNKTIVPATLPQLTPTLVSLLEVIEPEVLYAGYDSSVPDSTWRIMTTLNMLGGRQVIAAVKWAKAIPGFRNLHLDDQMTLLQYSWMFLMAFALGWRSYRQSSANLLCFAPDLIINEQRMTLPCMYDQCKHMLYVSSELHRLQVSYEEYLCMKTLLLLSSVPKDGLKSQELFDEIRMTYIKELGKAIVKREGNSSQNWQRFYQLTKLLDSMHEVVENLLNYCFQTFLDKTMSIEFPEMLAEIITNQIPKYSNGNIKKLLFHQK

[6] = at first response, including early terminators

**Q.** With `CC#C[C@]1(O)CC[C@H]2[C@@H]3CCC4=CC(=O)CCC4=C3[C@@H](c3ccc(N(C)C)cc3)C[C@@]21C` [mifepristone, 17-beta-hydroxy-11-beta-(4-dimethyl-aminophenyl)-17-alpha-(1-propynyl)-estra-4,9-dien-3-one] as the molecule, how does the “MIFE-Ctrough at Response, Max” value [1, 6] read?
**A.** 4210.00 ng/mL

**Q.** And the “MIFE-Ctrough at Response, Mean” value [1, 6]?
**A.** 1968.68 ng/mL

**Q.** And the “MIFE-Ctrough at Response, Median” value [1, 6]?
**A.** 1770.00 ng/mL

**Q.** And the “MIFE-Ctrough at Response, Min” value [1, 6]?
**A.** 448.00 ng/mL

**Q.** What about the “MIFE-ΔCtrough from Prior Dose, Max” value [1, 6] of the same molecule?
**A.** 2017.00 ng/mL

**Q.** And the “MIFE-ΔCtrough from Prior Dose, Mean” value [1, 6]?
**A.** 221.50 ng/mL

**Q.** What about the “MIFE-ΔCtrough from Prior Dose, Median” value [1, 6] of the same molecule?
**A.** 250.00 ng/mL

**Q.** What about the “MIFE-ΔCtrough from Prior Dose, Min” value [1, 6] of the same molecule?
**A.** -860.00 ng/mL

**Q.** And the “MIFE-Ctrough, Mean” value ([1]; dose 300 (mg once a day by mouth))?
**A.** 1774.28 ng/mL

**Q.** And the “MIFE-Ctrough, Max” value ([1]; dose 300)?
**A.** 4130.00 ng/mL

**Q.** What about the “MIFE-Ctrough, Median” value ([1]; dose 300) of the same molecule?
**A.** 1455.00 ng/mL

**Q.** And the “MIFE-Ctrough, Min” value ([1]; dose 300)?
**A.** 820.00 ng/mL

**Q.** What about the “MIFE-Ctrough, Mean” value ([1]; dose 600 (mg once a day by mouth)) of the same molecule?
**A.** 1951.66 ng/mL

**Q.** What about the “MIFE-Ctrough, Max” value ([1]; dose 600) of the same molecule?
**A.** 3850.00 ng/mL

**Q.** And the “MIFE-Ctrough, Median” value ([1]; dose 600)?
**A.** 1630.00 ng/mL

**Q.** What about the “MIFE-Ctrough, Min” value ([1]; dose 600) of the same molecule?
**A.** 890.00 ng/mL

**Q.** What about the “MIFE-Ctrough, Mean” value ([1]; dose 900 (mg once a day by mouth)) of the same molecule?
**A.** 2107.70 ng/mL

**Q.** What about the “MIFE-Ctrough, Max” value ([1]; dose 900) of the same molecule?
**A.** 4230.00 ng/mL

**Q.** What about the “MIFE-Ctrough, Median” value ([1]; dose 900) of the same molecule?
**A.** 1820.00 ng/mL

**Q.** What about the “MIFE-Ctrough, Min” value ([1]; dose 900) of the same molecule?
**A.** 992.00 ng/mL

**Q.** And the “MIFE-Ctrough, Mean” value ([1]; dose 1200 (mg once a day by mouth))?
**A.** 2292.86 ng/mL

**Q.** What about the “MIFE-Ctrough, Max” value ([1]; dose 1200) of the same molecule?
**A.** 5440.00 ng/mL

**Q.** And the “MIFE-Ctrough, Median” value ([1]; dose 1200)?
**A.** 2022.50 ng/mL

**Q.** What about the “MIFE-Ctrough, Min” value ([1]; dose 1200) of the same molecule?
**A.** 1060.00 ng/mL

**Q.** And the “blood serum level to be maintained for a therapeutic response” value ([1]; patients suffering from Cushing's syndrome)?
**A.** at least 1631 ng/mL

**Q.** What about the “Cumulative Optimal Response (%)” value ([2]; dose 300) of the same molecule?
**A.** 20%

**Q.** And the “Optimal Response (%)” value ([2]; dose 300)?
**A.** 20%

**Q.** And the “Cumulative Optimal Response (%)” value ([2]; dose 600)?
**A.** 40%

**Q.** And the “Optimal Response (%)” value ([2]; dose 600)?
**A.** 20%

**Q.** What about the “Cumulative Optimal Response (%)” value ([2]; dose 900) of the same molecule?
**A.** 60%

**Q.** What about the “Optimal Response (%)” value ([2]; dose 900) of the same molecule?
**A.** 20%

**Q.** What about the “Cumulative Optimal Response (%)” value ([2]; dose 1200) of the same molecule?
**A.** 100%

**Q.** And the “Optimal Response (%)” value ([2]; dose 1200)?
**A.** 40%

**Q.** What about the “blood serum level to be maintained” value ([3]; patients suffering from a mental disorder) of the same molecule?
**A.** about 1300 ng/mL

**Q.** What about the “difference in blood serum levels from one patient to another” value ([3]; same dose, different patients) of the same molecule?
**A.** ≤ 800%

**Q.** And the LD50 dose [4]?
**A.** about 1000 mg/kg

**Q.** And the “binding to the glucocorticoid receptor (GR)” value [5]?
**A.** high affinity
